US9113629B2, “4-amino-6-(4-substituted-phenyl)-picolinates and 6-amino-2-(4-substituted-phenyl)-pyrimidine-4-carboxylates and their use as herbicides” (DOW AGROSCIENCES LLC, priority 2013, dated 2015)
Like-named read-outs stand apart in the source and are kept apart here.

How the values were obtained:
[1] = tested on: Key Grass and Sedge Weeds as well as Grass Crops; assay: Post-emergent Test II herbicidal activity (Table 6); assay type: in vivo; conditions: post-emergence, 336 h; for pest or weed control at 70 g/ha: application rate 70 g ai/ha; for pest or weed control at 140 g/ha: application rate 140 g ai/ha
How it was run: (§1)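 Post-emergence foliar spray, 187 L/ha, track sprayer at 43 cm above canopy. Carrier: acetone/water/IPA/DMSO/Atplus 411F/Triton X-155. Plants at 1st–2nd true leaf; subirrigated afterwards; % injury scored visually at 14 d.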

[2] = tested on: Key Broadleaf Weed and Crop Species; assay: Post-emergent Test II herbicidal activity (Table 5); assay type: in vivo; conditions: post-emergence, 336 h, post-emergent, 14 days after application; for pest or weed control at 70 g/ha: 70 g ai/ha; for pest or weed control at 140 g/ha: 140 g ai/ha
How it was run: as §1

[3] = CYPES: yellow nutsedge (Cyperus esculentus), read-out: Visual Growth Reduction (%) 14 Days After Application, CYPES
[4] = DIGSA: crabgrass (Digitaria sanguinalis), read-out: Visual Growth Reduction (%) 14 Days After Application, DIGSA
[5] = ECHCG: barnyardgrass (Echinochloa crus-galli), read-out: Visual Growth Reduction (%) 14 Days After Application, ECHCG
[6] = ORYSA: rice (Oryza sativa), read-out: Visual Growth Reduction (%) 14 Days After Application, ORYSA
[7] = SETFA: giant foxtail (Setaria faberi), read-out: Visual Growth Reduction (%) 14 Days After Application, SETFA
[8] = SORVU: grain sorghum (Sorghum vulgare), read-out: Visual Growth Reduction (%) 14 Days After Application, SORVU
[9] = TRZSS (wheat, Triticum aestivum), read-out: Visual Growth Reduction (%) 14 Days After Application, TRZSS
[10] = ZEAMX: maize, corn (Zea mays), read-out: Visual Growth Reduction (%) 14 Days After Application, ZEAMX
[11] = ABUTH: velvetleaf (Abutilon theophrasti), read-out: Visual Growth Reduction (%) 14 Days After Application ABUTH
[12] = AMARE: redroot pigweed (Amaranthus retroflexus), read-out: Visual Growth Reduction (%) 14 Days After Application AMARE
[13] = BRSNN: oilseed-rape, canola (Brassica napus), read-out: Visual Growth Reduction (%) 14 Days After Application BRSNN
[14] = CHEAL: lambsquarters (Chenopodium album), read-out: Visual Growth Reduction (%) 14 Days After Application CHEAL
[15] = EPHHL: wild poinsettia (Euphorbia heterophylla), read-out: Visual Growth Reduction (%) 14 Days After Application EPHHL
[16] = HELAN: sunflower (Helianthus annuus), read-out: Visual Growth Reduction (%) 14 Days After Application HELAN
[17] = VIOTR: wild pansy (Viola tricolor), read-out: Visual Growth Reduction (%) 14 Days After Application VIOTR

Question: What does the source list for COC(=O)c1nc(-c2cc(F)c(OC(F)F)cc2F)cc(N)c1Cl [Compound 177]?
Answer: pest or weed control at 70 g/ha [1, 3]: 45 to 59%; pest or weed control at 140 g/ha [1, 3]: 45 to 59%; pest or weed control at 70 g/ha [1, 4]: 0 to 29%; pest or weed control at 140 g/ha [1, 4]: 0 to 29%; pest or weed control at 70 g/ha [1, 5]: 0 to 29%; pest or weed control at 140 g/ha [1, 5]: 60 to 74%; pest or weed control at 70 g/ha [1, 6]: 0 to 29%; pest or weed control at 140 g/ha [1, 6]: 0 to 29%; pest or weed control at 70 g/ha [1, 7]: 30 to 44%; pest or weed control at 140 g/ha [1, 7]: 45 to 59%; pest or weed control at 70 g/ha [1, 8]: 0 to 29%; pest or weed control at 140 g/ha [1, 8]: 45 to 59%; pest or weed control at 70 g/ha [1, 9]: 30 to 44%; pest or weed control at 140 g/ha [1, 9]: 30 to 44%; pest or weed control at 70 g/ha [1, 10]: 0 to 29%; pest or weed control at 140 g/ha [1, 10]: 0 to 29%; melting point: 107.5 to 110.3 °C; pest or weed control at 70 g/ha [2, 11]: 85 to 94%; pest or weed control at 140 g/ha [2, 11]: 85 to 94%; pest or weed control at 70 g/ha [2, 12]: 75 to 84%; pest or weed control at 140 g/ha [2, 12]: 85 to 94%; pest or weed control at 70 g/ha [2, 13]: 30 to 44%; pest or weed control at 140 g/ha [2, 13]: 75 to 84%; pest or weed control at 70 g/ha [2, 14]: 75 to 84%; pest or weed control at 140 g/ha [2, 14]: 85 to 94%; pest or weed control at 70 g/ha [2, 15]: 95 to 100%; pest or weed control at 140 g/ha [2, 15]: 95 to 100%; pest or weed control at 70 g/ha [2, 16]: 30 to 44%; pest or weed control at 140 g/ha [2, 16]: 0 to 29%; pest or weed control at 70 g/ha [2, 17]: 0 to 29%; pest or weed control at 140 g/ha [2, 17]: 0 to 29%
